In patent US20190231740A1, “BLOOD FLOW-IMPROVING AGENT, ROYAL JELLY COMPOSITION, AND METHOD FOR PRODUCING ROYAL JELLY COMPOSITION” (YAMADA BEE COMPANY, INC., priority 2016, published 2019):

Test system: blood flow volume of a hindlimb of the rat
Assay: Hindlimb blood flow volume of rats after oral administration, measured with a two-dimensional laser blood flow meter
Format: in vivo
Settings: male SD rat hindlimb; for Increase in blood flow volume: one hour after oral administration vs before administration, average of three rats; for Increase in blood flow volume / Change in hindlimb blood flow volume between before and after the administration (in words): 10-hydroxydecanoic acid 120 mg/kg, 10-H2DA 420 mg/kg, Toki-shakuyaku-san 3750 mg/kg; for Change in hindlimb blood flow volume between before and after the administration (in words): one hour after oral administration
Description: As a test animal, a 6 to 8 week-old male rat Slc: SD rat (Japan SLC, Inc.) was used. As test substances, 10-hydroxydecanoic acid (manufactured by Combi-Blocks Inc.), trans-10-hydroxy-2-decenoic acid (referred to as “10-H2DA” hereinafter, manufactured by HANGZOU EASTBIOPHARM CO., LTD.) and Toki-shakuyaku-san (manufactured by TSUMURA & CO.) were used. A 0.5% w/v aqueous solution of methyl cellulose 400 (Wako Pure Chemical Industries, Ltd.) was prepared, and in the aqueous solution, the test substances were each suspended, thereby preparing a 12 mg/mL solution of 10-hydroxydecanoic acid, a 42 mg/ml solution of 10-H2DA and a 375 mg/ml solution of Toki-shakuyaku-san. The test animals were divided into four groups each consisting of three animals, and these groups were referred to as a 10-hydroxydecanoic acid group, a 10-H2DA group, a Toki-shakuyaku-san group and a control group. Using a gastric tube, the respective methyl cellulose aqueous solutions were orally administered to the 10-hydroxydecanoic acid group in such a desired amount that the amount of 10-hydroxydecanoic acid was 120 mg/kg, to the 10-H2DA group in such a desired amount that the amount of 10-H2DA was 420 mg/kg, and to the Toki-shakuyaku-san group in such a desired amount that the amount of Toki-shakuyaku-san was 3750 mg/kg. To the control group, a control substance (0.5% w/v methyl cellulose aqueous solution 10 mL/kg) was orally administered using a gastric tube.
Before the administration of the test substance and after one hour from the administration, a blood flow volume of a hindlimb of the rat was measured in an awaking and non-fixed state. For the measurement, a two-dimensional laser blood flow meter OZ-1 (manufactured by OMEGAWAVE INC.) was used. An increase in the blood flow volume (average value of three rats) based on that before the administration of each of the control group, the 10-hydroxydecanoic acid group, the 10-H2DA group and the Toki-shakuyaku-san group after one hour from the administration is shown in Table 1.

| SMILES | Increase in blood flow volume | Change in hindlimb blood flow volume between before and after the administration (in words) | Difference in blood flow volume between the control group and the treated group (one hour after oral administration of 120 mg/kg, FIG. 1) |
| --- | --- | --- | --- |
| O=C(O)/C=C/CCCCCCCO [10-H2DA, trans-10-hydroxy-2-decenoic acid, reference compound] | 2.2 arbitrary unit | a certain increase in the blood flow volume |  |
| O=C(O)CCCCCCCCCO [10-Hydroxydecanoic acid, 10-hydroxydecanoic acid] | 5.8 arbitrary unit | a remarkable increase in the blood flow volume | a significant difference (P=0.01) |
